Test results taken from patent US10722436B2, “Topical compositions” (MARY KAY INC., priority 2015, dated 2020).
Where no end group is shown, it is not given here. The star is where a group is joined. Hexanoyl = CCCCCC(=O)*

How the values were obtained:
B16-F1 melanocytes = experiment: B16 Pigmentation Assay (melanin secretion); format: cell-based, mouse; conditions: B16-F1 cells, 6 days
Description: Melanogenesis is the process by which melanocytes produce melanin, a naturally produced pigment that imparts color to skin, hair, and eyes. Inhibiting melanogenesis is beneficial to prevent skin darkening and lighten dark spots associated with aging. Melanogenesis in B16 cells was determined in the presence or absence of niacinamide by measuring melanin secretion. It was determined that niacinamide inhibits melanogenesis by 30%.
Melanogenesis was determined using B16-F1 melanocytes (ATCC), an immortalized mouse melanoma cell line. The endpoint of this assay was a spectrophotometric measurement of melanin production and cellular viability. B16-F1 melanocytes, were cultivated in standard DMEM growth medium with 10% fetal bovine serum (Mediatech) at 37° C. in 10% CO2 and then treated with or without niacinamide for 6 days. Following incubation, melanin secretion was measured by absorbance at 405 nm and cellular viability was quantified.

mushroom tyrosinase = experiment: Mushroom Tyrosinase Activity Assay; format: biochemical; conditions: substrate L-Dopa
Description: In mammalian cells, tyrosinase catalyzes two steps in the multi-step biosynthesis of melanin pigments from tyrosine (and from the polymerization of dopachrome). Tyrosinase is localized in melanocytes and produces melanin (aromatic quinone compounds) that imparts color to skin, hair, and eyes. The activity of tyrosinase on its substrate L-Dopa in the presence or absence of oligopeptide-1 was determined using a colorimetric mushroom tyrosinase activity assay. It was determined that oligopeptide-1 inhibits tyrosinase by 40%. Tyrosinase activity was assayed by measuring the ability of purified mushroom tyrosinase (Sigma) to oxidize its substrate, L-Dopa (Fisher), in the presence or absence of oligopeptide-1. Oxidation of L-DOPA by the tyrosinase produced a pigment that was evaluated by colorimetric plate reading at 490 nm. The percent inhibition of mushroom tyrosinase activity was calculated and compared to non-treated controls to determine the ability of test ingredients to inhibit the activity of purified enzyme. Test inhibition was compared with that of the known tyrosinase inhibitor kojic acid (Sigma).

[1] = system: elastin production in cultured human fibroblasts; experiment: Elastin Stimulation Assay; format: cell-based
Description: Elastin is a connective tissue protein that helps skin resume shape after stretching or contracting. Elastin is also an important load-bearing protein used in places where mechanical energy is required to be stored. Elastin is made by linking many soluble tropoelastin protein molecules, in a reaction catalyzed by lysyl oxidase. Elastin production was determined in cultured human fibroblasts incubated in the presence or absence of oligopeptide-1. It was determined that oligopeptide-1 increased elastin production by 23%.
Elastin secretion and elastin fibers were monitored by staining of cultured human fibroblasts using antibodies directed against elastin. Human fibroblasts were treated with or without oligopeptide-1. Following incubation, elastin content was measured using immunofluorescent antibodies directed against elastin.

[2] = system: procollagen peptide production in human epidermal fibroblasts; experiment: Collagen Stimulation Assay (procollagen peptide ELISA); format: cell-based; conditions: 3 days
Description: Collagen is an extracellular matrix protein critical for skin structure. Increased synthesis of collagen helps improve skin firmness and elasticity. Collagen stimulation was determined using a sandwich enzyme linked immuno-sorbant assay (ELISA) from Takara (#MK101) by measuring production of procollagen peptide (a precursor to collagen) in human epidermal fibroblasts incubated in the presence or absence of oligopeptide-1 or Prunus mume extract. It was determined that oligopeptide-1 increased collagen stimulation by 20% and Prunus mume extract increased collagen stimulation by 71%.
Collagen stimulation can be monitored by a spectrophotometric measurement that reflects the presence of procollagen peptide and cellular viability. The assay employs the quantitative sandwich enzyme immunoassay technique whereby a monoclonal antibody specific for procollagen peptide has been pre-coated onto microplate wells. […] Following incubation, cell culture medium was collected (samples and controls) and the amount of procollagen peptide secretion was quantified using a sandwich enzyme linked immuno-sorbant assay (ELISA) from Takara (#MK101). […] The color development was stopped and the color development was measured at 450 nm by a microplate reader.

[3] = system: TNF-α production in keratinocytes; experiment: Inhibition of Tumor Necrosis Factor Alpha (ELISA, PMA-treated keratinocytes); format: cell-based, human; conditions: PMA 10 ng/ml, 6 hours
Description: TNF-α is the prototype ligand of the TNF superfamily. It is a pleiotropic cytokine that plays a central role in inflammation. Increase in its expression is associated with an up regulation in pro-inflammatory activity. The bioassay used to analyze the effect of oligopeptide-1 and Opuntia ficus-indica extract used a spectrophotometric measurement that reflects the presence of TNF-α and cellular viability. It was determined that oligopeptide-1 and Opuntia ficus-indica extract inhibits TNF-α production in keratinocytes by 40% and 50%.
Subconfluent normal human adult keratinocytes (Cascade Biologics) cultivated in EpiLife standard growth medium (Cascade Biologics) at 37° C. in 5% CO2, were treated with phorbol 12-myristate 13-acetate (PMA, 10 ng/ml, Sigma Chemical, #P1585-1MG) and either oligopeptide-1 or Opuntia ficus-indica extract (treated samples) or no additional treatment (untreated sample) for 6 hours. PMA causes a dramatic increase in TNF-α secretion which peaks at 6 hours after treatment. Following incubation, cell culture medium was collected and the amount of TNF-a secretion quantified using a sandwich enzyme linked immuno-sorbant assay (ELISA) from R&D Systems (#DTA00C).
Briefly, the ELISA assay employed the quantitative sandwich enzyme immunoassay technique whereby a monoclonal antibody specific for TNF-α was been pre-coated onto a microplate. […]

Compound | inhibits melanogenesis by (B16-F1 melanocytes) [%] | Inhibition of Melanogenesis: Activity (B16-F1 melanocytes; negative = inhibition) [%] | inhibits tyrosinase by (mushroom tyrosinase) [%] | Inhibition of Tyrosinase: Activity (mushroom tyrosinase; negative = inhibition) [%] | increased elastin production by [1] [%] | Elastin Production: Activity ([1]; positive = increase) | increased collagen stimulation by [2] [%] | Collagen Stimulation: Activity ([2]; positive = increase) | inhibits TNF-α production in keratinocytes by [3] [%] | Inhibition of TNF-α: Activity ([3]; negative = inhibition) [%]
NC(=O)c1cccnc1 [Niacinamide, 3-Pyridinecarboxamide] | 30 | −30 | – | – | – | – | – | – | – | –
caprooyl-Gly-His-Lys-Lys (Hexanoyl-GHKK) [Oligopeptide-1, modified tetrapeptide; Lucas Meyer, trade name ChroNOline] | – | – | 40 | −40 | 23 | +23% | 20 | +20% | 40 | −40
